Where a SMILES comes first, the peptide text is derived from it. [ ]: non-standard residue; d: D form. The star is where a group is joined. Dolaproine = CO[C@@H]([C@@H]1CCCN1)[C@@H](C)C(=O)O; Dil = CC[C@H](C)[C@H](NC)[C@@H](CC(=O)O)OC; X1 = C[C@@H](N*)[C@@H](O)c1ccccc1; NMeV = CN[C@H](C(=O)O)C(C)C
How the values were obtained:
human macrophages = test: Viability of payload-treated human macrophages (Calcein AM / Ethidium Homodimer-1); format: cell-based; conditions: free payload; 48-hour incubation; calcein-positive, Ethidium Homodimer-1 negative cells
Procedure: Macrophage differentiation from CD14+ monocytes: Human peripheral blood mononuclear cells (PBMCs) were isolated from blood donors, who provided informed consent, using density gradient centrifugation. Monocytes were then purified from PBMCs utilizing a CD14 selection kit (Stemcell) according to the manufacturer's instructions. The isolated monocytes were differentiated into macrophages by culturing in RPMI 1640 medium supplemented with 10% FBS and 100 ng/mL macrophage colony-stimulating factor (M-CSF) for 5 days.
Viability assay with Calcein AM: To prepare the viability assay with Calcein AM for flow cytometry, 5 μL of Calcein AM (Component A) and 20 μL of Ethidium Homodimer-1 (Component B) was added to 10 mL of DPBS. Cells were centrifuged at 450×G for 5 minutes to remove the culture medium, and 100-200 μL of the staining solution was added directly to the cells and incubated for 30 minutes at room temperature (20-25° C.). After the incubation, cells were centrifuged at 450×G for 5 minutes to remove the supernatant, and resuspended in 150 μL of DPBS. Cells were analyzed by flow cytometry.

[1] = system: osteoclast differentiation; test: Osteoclast differentiation in vitro (TRACP 5b in culture medium); format: cell-based; conditions: relative to baseline levels; culture medium at day 7 (FIG. 46)

Row | Compound | loss of cell viability of human macrophages (human macrophages) | effect on osteoclast differentiation (TRACP 5b) [1]
1 | CC[C@H](C)[C@@H]([C@@H](CC(=O)N1CCC[C@H]1[C@H](OC)[C@@H](C)C(=O)N[C@H](C)[C@@H](O)c1ccccc1)OC)N(C)C(=O)[C@@H](NC(=O)[C@@H](NC)C(C)C)C(C)C [MMAE, monomethylauristatin E] (H-[NMeV]V[Dil][Dolaproine]-X1) | at a lower concentration than Exatecan | –
2 | denosumab: control that reduced osteoclast differentiation [reference compound] | – | reduced differentiation

— patent publication US20250361297A1, “ANTI- SIGLEC-15 BINDING MOLECULES AND METHODS OF USE” (ADAPTAM THERAPEUTICS, S.L., priority 2024, published 2025)
